The record followed here is US11376257B2, “Generation of muscle lineage cells and therapeutic uses thereof” (GENEA BIOCELLS USA (HOLDINGS), INC., priority 2016, dated 2022).

The test system of test [1] is stem cell-derived myoblasts. The settings on record: for myotube morphology (visual) versus control cultures / production of myotubes with mature features (summary of FIGS. 10-18): 5 days; for production of myotubes with mature features (summary of FIGS. 10-18): different doses in Myotube Medium. On the procedure:
For screening, frozen satellite-like cells, prepared as described in Example 1, were thawed in a water bath at 37° C., resuspended in 3 mL of warm Myoblast Medium (Genea Biocells) and centrifuged at 400×g for 4 min. The supernatant was removed and the cell pellet was resuspended in 1 mL of medium for cell count. Cells were seeded at a density of 5,000 cells/cm^2 in collagen I-coated plastic flasks (Biocoat, BD Bioscience) and incubated at 5% CO2, 37° C. Every other day the culture medium was exchanged until cells reached a confluency of 80%, then cells were trypsinized, counted and seeded in collagen-coated 96-well plate (Biocoat) at density of 30,000 cells/cm^2 in Myoblast Medium using an automated liquid handling system (Fluent, Tecan Trading AG, Switzerland). Cells were incubated at 5% CO2, 37° C. and the medium was changed every other day until cells reached a confluence of 80%. The medium was exchanged for Myotube Medium (Genea Biocells) containing the test compounds. No further media changes were performed. In general, 3 to 6 concentrations were tested ranging from 3 μM to 1 nM; one plate per dilution was used. Media and DMSO control wells were placed randomly. No media changes were performed at this stage. After five days of myotube differentiation in the presence of compounds, cells were fixed with 10% formalin (Sigma) for 15 minutes at room temperature and washed once with phosphate-buffered saline (PBS). Next, cells were stained with an antibody specific for myosin heavy chain (Developmental Studies of Hybridoma Bank, University of Iowa, Iowa City; anti mouse A4.1519; dilution 1:1000) in PBS solution containing 5% bovine serum albumin (BSA, Sigma) and 0.3% Triton-X (Sigma) and incubated for 1 hour at room temperature. The cells were washed once with PBS and then incubated for 1 hour with a second antibody, Alexa Fluor 488-conjugated goat anti-mouse IgG (Invitrogen, 1:1000), and counterstained for nuclei with Hoechst 33342 (Molecular probes 1:5000) in a PBS solution containing 5% BSA and 0.3% Triton-X. Cells were washed with PBS prior microscopic analysis. Cells were imaged using an IN Cell Analyzer 6000 (GE-Healthcare) high content analysis system. Developer Toolbox v1.9.3 was utilized for image analysis to determine the number of nuclei, and the number of nuclei within MHC-positive myotubes. To evaluate the effect of compounds in either decrease or increase these measures untreated controls were set as the baseline.
Myoblasts were prepared or frozen myoblasts were thawed as described in Example 4. Once cultures reached confluency the medium was changed to Myotube Medium supplemented with 0.2, 0.5 or 1 μM CHIR-124 (Chk1 inhibitor). The cultures were left in an incubator at 37° C. and 5% CO2 for 5 days. […] Cells were fixed with 10% formalin (Sigma) for 15 minutes at room temperature and washed once with phosphate-buffered saline (PBS). Next, cells were stained for with antibodies specific for myosin heavy chain (Developmental Studies of Hybridoma Bank, University of Iowa, Iowa City; anti mouse A4.1519; dilution 1:1000) and MyoG (Santa Cruz, anti-rabbit; dilution 1:500) in PBS solution containing 5% bovine serum albumin (BSA, Sigma) and 0.3% Triton-X (Sigma) and incubated for 1 hour at room temperature. The cells were washed once with PBS and then incubated for 1 hour with a second antibody, Alexa Fluor 488-conjugated goat anti-mouse IgG and Alexa Fluor 647-conjugated anti-rabbit (both Invitrogen, 1:1000), and counterstained for nuclei with Hoechst 33342 (Molecular probes 1:5000) in a PBS solution containing 5% BSA and 0.3% Triton-X. Cells were washed with PBS prior to microscopic analysis. Cells were imaged using an IN Cell Analyzer 6000 (GE-Healthcare) high content analysis system.

The subject of test [2] is myosin heavy chains (MHC) in Genea015 myoblast-derived myotubes. In words: Western blot analysis of myosin heavy chain types in myotubes. The test is classed as cell-based, human. On the procedure:
Genea015 (a disease-unaffected hESC cell line) myoblasts prepared by the method of Example 4 were thawed and seeded at 30,000 cells/cm^2 in Genea Biocells Myoblast Medium and incubated at 37° C., 5% CO2 until confluent (approximately 2 days). Then media was changed for Genea Biocells Myotube Medium either alone or with […] CHIR-124. Cell lysates for protein analysis were collected 5 days after treatment with CHIR-124 and quantified by BCA assay (ThermoFisher). Western blotting (Wes, Protein Simple) was performed to analyze the expression of myosin heavy chains (MHC) that are expressed during development and maturation of myotubes (total MHC, or total myosin heavy chain; eMHC, or embryonic myosin heavy chain; fMHC, or foetal myosin heavy chain; pMHC, or perinatal myosin heavy chain; and fast MHC, or fast myosin heavy chain, the most mature MHC found in myotubes). MHC expression was normalized to Vinculin for quantification.
On the technique in general: Immunoblotting shows a protein as a band on a membrane.

Test [3] has as its system Duchenne Muscular Dystrophy (DMD). In words: Treatment of a Duchenne Muscular Dystrophy patient with a checkpoint inhibitor. The test is classed as in vivo, human. The settings on record: child with DMD. On the procedure: A child diagnosed with Duchenne Muscular Dystrophy (DMD) is seen in a clinic for weakness in their calves and thighs.
A child diagnosed with Duchenne Muscular Dystrophy (DMD) is seen in a clinic for weakness in their calves and thighs. To treat the muscle weakness, the patient is administered 100 mg once daily of CHIR-124 or 50-75 mg twice daily of CHIR-124 for two months. At the initial appointment, skin fibroblasts are obtained from the patient. The fibroblasts are subsequently used to produce induced pluripotent stem cells (iPSCs), which are then genetically modified to remove a mutation associated with DMD. The iPSCs are then differentiated into satellite cells in vitro; and the satellite cells, in turn, are differentiated into myoblasts in vitro. The differentiated myoblasts are then administered in […] doses to the patient's thighs and calves once a week during the two month period.

Test [4] concerns myoblasts from non-affected and genetic disease-affected hESC cell lines. In words: Myotube formation in disease-affected and non-affected hESC-derived myoblasts with or without CHIR-124. The test is classed as cell-based, human. The settings on record: 0.5 μM CHIR-124, three days in Myotube Medium, all cell lines (unaffected, Huntington's, DM1, DM2, SMA, FSH, DMD). On the procedure: Myoblasts prepared via the method of Example 4 from two non-affected hESC cell lines (Genea002 and Genes019) and six verified genetic disease-affected cell lines (Genea020, Genea066, Gen103, Gen158, Gen049 and Gen159, described in Table 6 below) were thawed in Genea Biocells Myoblast Medium in 96-well microtiter plates at 3.0×10^4 cells/cm2 and incubated at 10% CO2, 37° C. Genea020 was derived from an embryo affected with Huntington's disease (48CAG repeat expansion in the Huntingtin gene). Genea066 was derived from an embryo affected with Myotonic Dystrophy type II. Genea103 was derived from an embryo affected with Spinal Muscular Atrophy. Genea158 was derived from an embryo affected with Myotonic Dystrophy type I. Genea049 was derived from an embryo affected with FSH Muscular Dystrophy. Genea159 was derived from an embryo affected with Duchenne muscular dystrophy. All hESC cell lines were derived according to approved ethical protocols from donated embryos. Once cells (myoblasts) were confluent (approximately on day 3) media was changed for Genea Biocells Myotube Medium, either alone or with 0.5 μM CHIR-124 (CHIR). […] Images were analyzed with IN Cell Developer Toolbox software (GE Healthcare). […] The ratio between area of MHC and nuclei (um2) was calculated by measuring the area per field divided by the number of nuclei within that field.

The mark [5] stands for this setting: 0.5 μM CHIR-124, 5 days, Genea015.

“Also recorded” adds a separate entry of the source. Read-outs that look alike come from different tables or passages of the source. A value given as a limit tells only on which side of the number the result lay.

`CN1[C@@H]2CC[C@H]1C[C@@H](OC(=O)C(CO)c1ccccc1)C2` (some centres unmarked) [atropine]: the “myotube morphology (visual) versus control cultures” value in test [1] (0.2, 0.5 or 1 μM atropine) is “formed longer and thicker myotubes than control cultures”. Further, in test [1] (cultures incubated with atropine), the “number of myotubes observed” value is given as “overall fewer myotubes were observed”. In test [1], the “production of myotubes with mature features (summary of FIGS. 10-18)” value (“production of myotubes” for short) is “produce myotubes with mature features”.
Regarding `Cn1cnc2c(F)c(Nc3ccc(Br)cc3F)c(C(=O)NOCCO)cc21` [MEK162, binimetinib], the “myotube morphology (visual) versus control cultures” value in test [1] (0.1, 0.3 or 1 μM) is “formed more and longer and thicker myotubes than control cultures”. The “production of myotubes” value in test [1] is listed as “produce myotubes with mature features”.
For `CO[C@H]1C[C@@H]2CC[C@@H](C)[C@@](O)(O2)C(=O)C(=O)N2CCCC[C@H]2C(=O)O[C@H]([C@H](C)C[C@@H]2CC[C@@H](O)[C@H](OC)C2)CC(=O)[C@H](C)/C=C(\C)[C@@H](O)[C@@H](OC)C(=O)[C@H](C)C[C@H](C)/C=C/C=C/C=C/1C` [rapamycin], the “myotube morphology (visual) versus control cultures” value in test [1] (0.1, 0.3 or 1 μM) is “formed more and longer and thicker myotubes than control cultures”. Moreover, the “production of myotubes” value in test [1] is listed as “produce myotubes with mature features”.
As to `CC[C@@H]1C(=O)OC[C@@H]1Cc1cncn1C` [pilocarpine], the “myotube morphology (visual) versus control cultures” value in test [1] (0.1, 03 or 1 μM pilocarpine) was “formed longer and thicker myotubes than control cultures”. In addition, the “production of myotubes” value in test [1] is given as “produce myotubes with mature features”.
Take `O=c1[nH]c2ccc(Cl)cc2c(NC2CN3CCC2CC3)c1-c1nc2ccccc2[nH]1` (centres unmarked) [CHIR-124]: in test [2] (setting [5]), the “expression of fast MHC (fast myosin heavy chain)” value is listed as “increases in expression” and the “expression of total MHC normalized to Vinculin” value is “increases expression”. In addition, the “expression of pMHC (perinatal myosin heavy chain)” value in test [2] (0.5 M CHIR-124, 5 days, Genea015) is reported as “increases in expression”. In test [2] (in the presence of CHIR-124), the “expression of the most mature forms of MHC (FIG. 20)” value is “increased expression”. The “symptoms of muscle weakness” value in test [3] (100 mg once daily or 50-75 mg twice daily for two months) is given as “symptoms of muscle weakness improve”. The muscle tone entry in test [3] (CHIR-124 for two months combined with genetically modified iPSC-derived myoblasts once a week) is listed as “improved muscle tone”. Also, in test [4], the “myotube formation as MHC staining area normalized to cell number (nuclei)” value is listed as “improved myotube formation; also recorded: improvements in differentiation”. The “myotube formation as MHC staining area normalized to cell number (nuclei)” value in test [4] (listed as CHIR124) is listed as “higher”. Besides, the “myotube morphology (visual)” value in test [1] (0.2 μM, 0.5 μM, or 1 μM CHIR-124, 5 days) is “formed thick, large myotubes”. Moreover, the “number of myotubes observed” value in test [1] (1 μM CHIR-124, 5 days) is recorded as “overall fewer myotubes were observed”. In addition, the “larger average myotube diameter compared to myotubes formed in the absence of CHIR-124” value in test [1] (0.2 or 0.5 μM CHIR-124, 5 days) is more than 80%. Also, the “average number of nuclei per myotube” value in test [1] (0.2 or 0.5 μM CHIR-124, 5 days, 2 without CHIR-124) was “about 4”. Besides, in test [1] (CHIR-124, 5 days), the “mean area of myotubes (FIG. 10D, lower panel)” value was “Increases”; the “myotube area (FIG. 10C, lower panel)” value is given as “Increases”; the “number of cells with larger myotube area (FIG. 10D, upper panel)” value is recorded as “Increases”; the “number of cells with more than one nucleus (FIG. 10B, lower panel)” value is listed as “Increases”. In addition, the “production of myotubes” value in test [1] is given as “produce myotubes with mature features”. Further, in test [1] (exposed to CHIR-124, untreated controls few cells exceeding 10-12 nuclei), the “nuclei contained in many myotubes” value is on record as “more than 30”.
In the case of `COc1ccncc1C(=O)NC(=O)Nc1ccc(-c2ccccc2)c(C(F)(F)F)c1` [TC-G 1006], the “myotube morphology (visual) versus control cultures” value in test [1] (0.1, 0.3 or 1 M) is “formed longer and thicker myotubes than control cultures”. In test [1], the “production of myotubes” value was “produce myotubes with mature features”.
With `CNC(=O)c1cc(Oc2ccc(NC(=O)Nc3ccc(Cl)c(C(F)(F)F)c3)cc2)ccn1` [sorafenib], the “myotube morphology (visual) versus control cultures” value in test [1] (0.1, 0.3 or 1 μM) is “formed more and longer and thicker myotubes than control cultures”. Moreover, the “production of myotubes” value in test [1] is recorded as “produce myotubes with mature features”.
`CC(C)c1noc(N2CCC(COc3ccc(-c4ccc(S(C)(=O)=O)cc4)nc3)CC2)n1` [GSK1292263]: the “myotube morphology (visual) versus control cultures” value in test [1] (0.1, 0.3 or 1 M) is “formed longer and thicker myotubes than control cultures”. The “production of myotubes” value in test [1] is on record as “produce myotubes with mature features”.
talazoparib: in test [1] (0.1, 0.3 or 1 μM Talazoparib), the “myotube morphology (visual) versus control cultures” value is “formed more and longer myotubes than control cultures”. Besides, in test [1], the “production of myotubes” value was “produce myotubes with mature features”.
